Source: patent publication US20090233921A1, “THERAPEUTIC CYCLOPENTANE DERIVATIVES” (ALLERGAN, INC., priority 2008, published 2009)

Tested on: lashes and adjacent hairs of patients having glaucoma
Assay: Clinical observation of lashes and adjacent hairs in glaucoma patients treated in one eye
Type: in vivo, human
From the text: In the course of treating patients having glaucoma, treatment may only be appropriate in one eye. […] The lash appearance on the lids of the treated eyes would have appeared quite attractive if it represented a bilateral phenomenon. As a result of its asymmetric nature, the long lashes on one side could be construed as disturbing from a cosmetic standpoint. A systemic examination was preformed as a result of the asymmetric phenomenon. It soon became apparent that this altered appearance was not an isolated finding.
The changes in the lashes were apparent on gross inspection in several patients once attention was focused on the issue. In those with light colored hair and lashes, the differences were only seen easily with the aid of the high magnification and lighting capabilities of the slit lamp biomicroscope. In the course of glaucoma follow-up examination, attention is generally immediately focused on the eye itself. As a result of the high power magnification needed only one eye is seen at a time and the eye is seen at a high enough power that the lashes are not in focus. At these higher powers, any lash asymmetry between the two eyes is not likely to be noticed except by careful systematic comparison of the lashes and adjacent hairs of the eyelids of the two eyes. […]

## CCNC(=O)CCC/C=C\C[C@@H]1[C@@H](/C=C/[C@@H](O)CCc2ccccc2)[C@H](O)C[C@@H]1O [bimatoprost]
A patient treated in one eye
  lash appearance, treated eye versus non-treated eye: longer, thicker, and fuller in the treated eye than in the non-treated eye
All patients taking the drug on a unilateral basis for longer than 6 months
  differences in lashes and adjacent hairs of the treated side: Definite differences could be identified to varying degrees
